PubChem BioAssay (NCI)
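GI50 is the concentration that inhibits growth by half. TGI denotes the concentration required for complete inhibition of growth.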

How the values were obtained:
Assay in all cases: DTP human tumour cell line panel, 384-well format
SF-268 CNS = tested on: SF-268 CNS
EKVX NSCLC = tested on: EKVX NSCLC
OVCAR-3 ovarian = tested on: OVCAR-3 ovarian
SNB-75 CNS = tested on: SNB-75 CNS
COLO 205 colon = tested on: COLO 205 colon
NCI-H522 lung = tested on: NCI-H522 lung
UACC-62 melanoma = tested on: UACC-62 melanoma
A498 renal = tested on: A498 renal
DU-145 prostate = tested on: DU-145 prostate
IGROV1 ovarian = tested on: IGROV1 ovarian
NCI-H23 lung = tested on: NCI-H23 lung
SF-539 CNS = tested on: SF-539 CNS
A549 NSCLC = tested on: A549 NSCLC
SNB-19 CNS = tested on: SNB-19 CNS
OVCAR-4 ovarian = tested on: OVCAR-4 ovarian
HOP-62 NSCLC = tested on: HOP-62 NSCLC
UO-31 renal = tested on: UO-31 renal
SK-MEL-5 melanoma = tested on: SK-MEL-5 melanoma
NCI-H322M lung = tested on: NCI-H322M lung
HT29 colon = tested on: HT29 colon
RXF 393 renal = tested on: RXF 393 renal
MCF7 breast = tested on: MCF7 breast
NCI-H460 NSCLC = tested on: NCI-H460 NSCLC
CAKI-1 renal = tested on: CAKI-1 renal
MALME-3M melanoma = tested on: MALME-3M melanoma
MDA-MB-468 breast = tested on: MDA-MB-468 breast
786-0 renal = tested on: 786-0 renal
HL-60(TB) leukemia = tested on: HL-60(TB) leukemia
SW-620 colon = tested on: SW-620 colon
ACHN renal = tested on: ACHN renal
HCT-116 colon = tested on: HCT-116 colon
OVCAR-5 ovarian = tested on: OVCAR-5 ovarian
K-562 leukemia = tested on: K-562 leukemia
SN12C renal = tested on: SN12C renal
SK-MEL-28 melanoma = tested on: SK-MEL-28 melanoma
MOLT-4 leukemia = tested on: MOLT-4 leukemia
UACC-257 melanoma = tested on: UACC-257 melanoma
MDA-MB-435 melanoma = tested on: MDA-MB-435 melanoma
BT-549 breast = tested on: BT-549 breast
SR leukemia = tested on: SR leukemia
PC-3 prostate = tested on: PC-3 prostate
SF-295 CNS = tested on: SF-295 CNS
T-47D breast = tested on: T-47D breast
SK-MEL-2 melanoma = tested on: SK-MEL-2 melanoma
HCT-15 colon = tested on: HCT-15 colon
HS 578T breast = tested on: HS 578T breast
SK-OV-3 ovarian = tested on: SK-OV-3 ovarian
MDA-MB-231 breast = tested on: MDA-MB-231 breast
NCI-H226 lung = tested on: NCI-H226 lung
U251 glioblastoma = tested on: U251 glioblastoma
KM12 colon = tested on: KM12 colon
HOP-92 NSCLC = tested on: HOP-92 NSCLC
TK-10 renal = tested on: TK-10 renal
OVCAR-8 ovarian = tested on: OVCAR-8 ovarian
M14 melanoma = tested on: M14 melanoma

Cn1cc(-c2ccc3c(c2)ncn3-c2cc(NS(=O)(=O)C3CC3)cc(-c3ccc(F)cc3F)c2)cn1
GI50 (SF-268 CNS): 3.4 µM
TGI (SF-268 CNS): 61.3 µM
GI50 (EKVX NSCLC): 2.82 µM
TGI (EKVX NSCLC): 13.5 µM
GI50 (OVCAR-3 ovarian): 3.15 µM
TGI (OVCAR-3 ovarian): 11.4 µM
GI50 (SNB-75 CNS): 0.29 µM
TGI (SNB-75 CNS): 3.53 µM
GI50 (COLO 205 colon): 11.7 µM
TGI (COLO 205 colon): 93.6 µM
GI50 (NCI-H522 lung): 1.8 µM
TGI (NCI-H522 lung): 6.87 µM
GI50 (UACC-62 melanoma): 6.3 µM
TGI (UACC-62 melanoma): 18.9 µM
GI50 (A498 renal): 2.36 µM
TGI (A498 renal): 6.03 µM
GI50 (DU-145 prostate): 4.9 µM
TGI (DU-145 prostate): 40.2 µM
GI50 (IGROV1 ovarian): 2.02 µM
TGI (IGROV1 ovarian): 6.92 µM
GI50 (NCI-H23 lung): 2.51 µM
TGI (NCI-H23 lung): 14.4 µM
GI50 (SF-539 CNS): 0.305 µM
TGI (SF-539 CNS): 2.05 µM
GI50 (A549 NSCLC): 3.42 µM
TGI (A549 NSCLC): > 100 µM
GI50 (SNB-19 CNS): 4.05 µM
TGI (SNB-19 CNS): > 100 µM
GI50 (OVCAR-4 ovarian): 2.26 µM
TGI (OVCAR-4 ovarian): 37.6 µM
GI50 (HOP-62 NSCLC): 2.39 µM
TGI (HOP-62 NSCLC): 10.8 µM
GI50 (UO-31 renal): 1.73 µM
TGI (UO-31 renal): 7.66 µM
GI50 (SK-MEL-5 melanoma): 3.28 µM
TGI (SK-MEL-5 melanoma): 15.7 µM
GI50 (NCI-H322M lung): 3.3 µM
TGI (NCI-H322M lung): 20.7 µM
GI50 (HT29 colon): 3.01 µM
TGI (HT29 colon): 10.2 µM
GI50 (RXF 393 renal): 0.183 µM
TGI (RXF 393 renal): 2.06 µM
GI50 (MCF7 breast): 2.07 µM
TGI (MCF7 breast): 12.8 µM
GI50 (NCI-H460 NSCLC): 2.48 µM
TGI (NCI-H460 NSCLC): 13.7 µM
GI50 (CAKI-1 renal): 2.16 µM
TGI (CAKI-1 renal): > 100 µM
GI50 (MALME-3M melanoma): 4.55 µM
TGI (MALME-3M melanoma): 15.2 µM
GI50 (MDA-MB-468 breast): 1.71 µM
TGI (MDA-MB-468 breast): 6.44 µM
GI50 ([…]-0 renal): 1.99 µM
TGI (786-0 renal): 4.95 µM
GI50 (HL-60(TB) leukemia): 3.2 µM
TGI (HL-60(TB) leukemia): 6.8 µM
GI50 (SW-620 colon): 18 µM
TGI (SW-620 colon): > 100 µM
GI50 (ACHN renal): 2.5 µM
TGI (ACHN renal): 13.2 µM
GI50 (HCT-116 colon): 2.79 µM
TGI (HCT-116 colon): 12.3 µM
GI50 (OVCAR-5 ovarian): 4.31 µM
TGI (OVCAR-5 ovarian): 79.4 µM
GI50 (K-562 leukemia): 1.81 µM
TGI (K-562 leukemia): 3.65 µM
GI50 (SN12C renal): 2.51 µM
TGI (SN12C renal): > 100 µM
GI50 (SK-MEL-28 melanoma): 4.04 µM
TGI (SK-MEL-28 melanoma): 19.5 µM
GI50 (MOLT-4 leukemia): 1.62 µM
TGI (MOLT-4 leukemia): 3.09 µM
GI50 (UACC-257 melanoma): 3.02 µM
TGI (UACC-257 melanoma): 10.3 µM
GI50 (MDA-MB-435 melanoma): 4.37 µM
TGI (MDA-MB-435 melanoma): 72.8 µM
GI50 (BT-549 breast): 1.03 µM
TGI (BT-549 breast): 9.21 µM
GI50 (SR leukemia): 1.89 µM
TGI (SR leukemia): 3.7 µM
GI50 (PC-3 prostate): 2.92 µM
TGI (PC-3 prostate): 9.54 µM
GI50 (SF-295 CNS): 1.69 µM
TGI (SF-295 CNS): 4.14 µM
GI50 (T-47D breast): 2.63 µM
TGI (T-47D breast): 13.7 µM
GI50 (SK-MEL-2 melanoma): 2.78 µM
TGI (SK-MEL-2 melanoma): 7.22 µM
GI50 (HCT-15 colon): 4.25 µM
TGI (HCT-15 colon): 24 µM
GI50 (HS 578T breast): 0.575 µM
TGI (HS 578T breast): 2.44 µM
GI50 (SK-OV-3 ovarian): 2.42 µM
TGI (SK-OV-3 ovarian): 10.8 µM
GI50 (MDA-MB-231 breast): 3.4 µM
TGI (MDA-MB-231 breast): > 100 µM
GI50 (NCI-H226 lung): 0.344 µM
TGI (NCI-H226 lung): 14.3 µM
GI50 (U251 glioblastoma): 2.15 µM
TGI (U251 glioblastoma): 12.3 µM
GI50 (KM12 colon): 3.4 µM
TGI (KM12 colon): 13.2 µM
GI50 (HOP-92 NSCLC): 2.03 µM
TGI (HOP-92 NSCLC): 12.4 µM
GI50 (TK-10 renal): 2.87 µM
TGI (TK-10 renal): 24.4 µM
GI50 (OVCAR-8 ovarian): 4.79 µM
TGI (OVCAR-8 ovarian): 79.6 µM
GI50 (M14 melanoma): 4.6 µM
TGI (M14 melanoma): 47.3 µM
